This is an account of results in article PMC516463 (Evidence-based Complementary and Alternative Medicine, 2004).

This assay relates to HIV-1. The note with it: 10 μM, control inhibitor of infection.

For `Cc1cn([C@H]2C[C@H](N=[N+]=[N-])[C@@H](CO)O2)c(=O)[nH]c1=O` [AZT], the “Inhibition of HIV-1 infection of MAGIC-5B cells (in words)” value is “totally suppressed”.
